# Measured values published in ChEMBL document CHEMBL4808241, “Synthesis and biological evaluation of 1,6-bis-triazole-2,3,4-tri-O-benzyl-α-d-glucopyranosides as a novel α-glucosidase inhibitor in the treatment of Type 2 diabetes” (Bioorg Med Chem Lett, 2021).
# The source made the active and inactive calls. The rule behind the calls is not given here.
# Molecular target: not listed separately
# Assay: Inhibition of Saccharomyces cerevisiae alpha-glucosidase
row,Compound,IC50 [µM]
1,CCCCCCCC/C=C\CCCCCCCCn1cc(COC[C@H]2O[C@H](OCc3cn(CCCCCCCC/C=C\CCCCCCCC)nn3)[C@H](OCc3ccccc3)[C@@H](OCc3ccccc3)[C@@H]2OCc2ccccc2)nn1,14.1
2,O=c1ccc2cc(OCCCCCCn3cc(COC[C@H]4O[C@H](OCc5cn(CCCCCCOc6ccc7oc(=O)ccc7c6)nn5)[C@H](OCc5ccccc5)[C@@H](OCc5ccccc5)[C@@H]4OCc4ccccc4)nn3)ccc2o1,21.7
3,c1ccc(CO[C@@H]2[C@@H](OCc3ccccc3)[C@@H](OCc3cn(CCOc4ccc5ccccc5c4)nn3)O[C@H](COCc3cn(CCOc4ccc5ccccc5c4)nn3)[C@H]2OCc2ccccc2)cc1,13.9
4,O=[N+]([O-])c1cccc(Cn2cc(COC[C@H]3O[C@H](OCc4cn(Cc5cccc([N+](=O)[O-])c5)nn4)[C@H](OCc4ccccc4)[C@@H](OCc4ccccc4)[C@@H]3OCc3ccccc3)nn2)c1,22.9
5,CC(C)[C@@H]1CC[C@@H](C)C[C@H]1OC(=O)Cn1cc(COC[C@H]2O[C@H](OCc3cn(CC(=O)O[C@@H]4C[C@H](C)CC[C@H]4C(C)C)nn3)[C@H](OCc3ccccc3)[C@@H](OCc3ccccc3)[C@@H]2OCc2ccccc2)nn1,3.73
6,O=C1C=C(OCCCCCCn2cc(COC[C@H]3O[C@H](OCc4cn(CCCCCCOC5=CC(=O)Cc6ccccc65)nn4)[C@H](OCc4ccccc4)[C@@H](OCc4ccccc4)[C@@H]3OCc3ccccc3)nn2)c2ccccc2C1,20.8
7,O=C(Cn1cc(COC[C@H]2O[C@H](OCc3cn(CC(=O)Oc4cccc5ccccc45)nn3)[C@H](OCc3ccccc3)[C@@H](OCc3ccccc3)[C@@H]2OCc2ccccc2)nn1)Oc1cccc2ccccc12,9.98
8,c1ccc(CO[C@@H]2[C@@H](OCc3ccccc3)[C@@H](OCc3cn(CCOc4cccc5ccccc45)nn3)O[C@H](COCc3cn(CCOc4cccc5ccccc45)nn3)[C@H]2OCc2ccccc2)cc1,29.4
9,O=[N+]([O-])c1ccc(Cn2cc(COC[C@H]3O[C@H](OCc4cn(Cc5ccc([N+](=O)[O-])cc5)nn4)[C@H](OCc4ccccc4)[C@@H](OCc4ccccc4)[C@@H]3OCc3ccccc3)nn2)cc1,53.3
10,O=C(Cn1cc(COC[C@H]2O[C@H](OCc3cn(CC(=O)OCc4ccc([N+](=O)[O-])cc4)nn3)[C@H](OCc3ccccc3)[C@@H](OCc3ccccc3)[C@@H]2OCc2ccccc2)nn1)OCc1ccc([N+](=O)[O-])cc1,5.68
11,C[C@H]1O[C@H](O[C@H]2[C@H](O)[C@@H](O)[C@@H](O[C@H]3[C@H](O)[C@@H](O)C(O)O[C@@H]3CO)O[C@@H]2CO)[C@H](O)[C@@H](O)[C@@H]1N[C@H]1C=C(CO)[C@@H](O)[C@H](O)[C@H]1O (some centres undefined) [ACARBOSE],146
12,c1ccc(CO[C@@H]2[C@@H](OCc3ccccc3)[C@@H](OCc3cn(CCOc4ccccc4)nn3)O[C@H](COCc3cn(CCOc4ccccc4)nn3)[C@H]2OCc2ccccc2)cc1,24.4
13,COc1ccc(OC)c(Cn2cc(COC[C@H]3O[C@H](OCc4cn(Cc5cc(OC)ccc5OC)nn4)[C@H](OCc4ccccc4)[C@@H](OCc4ccccc4)[C@@H]3OCc3ccccc3)nn2)c1,3.86
14,c1ccc(CO[C@@H]2[C@@H](OCc3ccccc3)[C@@H](OCc3cn(Cc4ccccc4)nn3)O[C@H](COCc3cn(Cc4ccccc4)nn3)[C@H]2OCc2ccccc2)cc1,12.1
15,Fc1ccc(Cn2cc(COC[C@H]3O[C@H](OCc4cn(Cc5ccc(F)cc5)nn4)[C@H](OCc4ccccc4)[C@@H](OCc4ccccc4)[C@@H]3OCc3ccccc3)nn2)cc1,37.3
16,Cc1ccc(OCCn2cc(COC[C@H]3O[C@H](OCc4cn(CCOc5ccc(C)cc5)nn4)[C@H](OCc4ccccc4)[C@@H](OCc4ccccc4)[C@@H]3OCc3ccccc3)nn2)cc1,50.5

# System: Saccharomyces cerevisiae
# Assay: Inhibition of Saccharomyces cerevisiae alpha-glucosidase at 0.1 mg/ml
row,Compound,inhibition
1,C=CCc1ccccc1OCCn1cc(COC[C@H]2O[C@H](OCc3cn(CCOc4ccccc4CC=C)nn3)[C@H](OCc3ccccc3)[C@@H](OCc3ccccc3)[C@@H]2OCc2ccccc2)nn1,inactive
2,COc1cc(Cn2cc(COC[C@H]3O[C@H](OCc4cn(Cc5ccc(OCc6ccccc6)c(OC)c5)nn4)[C@H](OCc4ccccc4)[C@@H](OCc4ccccc4)[C@@H]3OCc3ccccc3)nn2)ccc1OCc1ccccc1,inactive
3,c1ccc(CCn2cc(COC[C@H]3O[C@H](OCc4cn(CCc5ccccc5)nn4)[C@H](OCc4ccccc4)[C@@H](OCc4ccccc4)[C@@H]3OCc3ccccc3)nn2)cc1,inactive
4,COc1cccc(COC(=O)Cn2cc(COC[C@H]3O[C@H](OCc4cn(CC(=O)OCc5cccc(OC)c5)nn4)[C@H](OCc4ccccc4)[C@@H](OCc4ccccc4)[C@@H]3OCc3ccccc3)nn2)c1,inactive
5,COc1ccc(COC(=O)Cn2cc(COC[C@H]3O[C@H](OCc4cn(CC(=O)OCc5ccc(OC)cc5)nn4)[C@H](OCc4ccccc4)[C@@H](OCc4ccccc4)[C@@H]3OCc3ccccc3)nn2)cc1,inactive
6,O=C(Cn1cc(COC[C@H]2O[C@H](OCc3cn(CC(=O)OCc4ccccc4)nn3)[C@H](OCc3ccccc3)[C@@H](OCc3ccccc3)[C@@H]2OCc2ccccc2)nn1)OCc1ccccc1,inactive
7,COc1cccc(Cn2cc(COC[C@H]3O[C@H](OCc4cn(Cc5cccc(OC)c5)nn4)[C@H](OCc4ccccc4)[C@@H](OCc4ccccc4)[C@@H]3OCc3ccccc3)nn2)c1,inactive
8,CCCCCCCCCCCCCn1cc(COC[C@H]2O[C@H](OCc3cn(CCCCCCCCCCCCC)nn3)[C@H](OCc3ccccc3)[C@@H](OCc3ccccc3)[C@@H]2OCc2ccccc2)nn1,inactive
9,Cc1cc(COC(=O)Cn2cc(COC[C@H]3O[C@H](OCc4cn(CC(=O)OCc5ccc(Cl)c(C)c5)nn4)[C@H](OCc4ccccc4)[C@@H](OCc4ccccc4)[C@@H]3OCc3ccccc3)nn2)ccc1Cl,inactive
10,COc1ccc(OC)c(COC(=O)Cn2cc(COC[C@H]3O[C@H](OCc4cn(CC(=O)OCc5cc(OC)ccc5OC)nn4)[C@H](OCc4ccccc4)[C@@H](OCc4ccccc4)[C@@H]3OCc3ccccc3)nn2)c1,inactive
11,C=CCCCCCCCCCn1cc(COC[C@H]2O[C@H](OCc3cn(CCCCCCCCCC=C)nn3)[C@H](OCc3ccccc3)[C@@H](OCc3ccccc3)[C@@H]2OCc2ccccc2)nn1,inactive
12,COc1cc(COC(=O)Cn2cc(COC[C@H]3O[C@H](OCc4cn(CC(=O)OCc5ccc(OCc6ccccc6)c(OC)c5)nn4)[C@H](OCc4ccccc4)[C@@H](OCc4ccccc4)[C@@H]3OCc3ccccc3)nn2)ccc1OCc1ccccc1,inactive
13,CCCCCCCCCCCCCCCCCCn1cc(COC[C@H]2O[C@H](OCc3cn(CCCCCCCCCCCCCCCCCC)nn3)[C@H](OCc3ccccc3)[C@@H](OCc3ccccc3)[C@@H]2OCc2ccccc2)nn1,inactive
14,c1ccc(CO[C@@H]2[C@@H](OCc3ccccc3)[C@@H](OCc3cn(C(c4ccccc4)c4ccccc4)nn3)O[C@H](COCc3cn(C(c4ccccc4)c4ccccc4)nn3)[C@H]2OCc2ccccc2)cc1,inactive
15,O=C(Cn1cc(COC[C@H]2O[C@H](OCc3cn(CC(=O)OC(c4ccccc4)c4ccccc4)nn3)[C@H](OCc3ccccc3)[C@@H](OCc3ccccc3)[C@@H]2OCc2ccccc2)nn1)OC(c1ccccc1)c1ccccc1,inactive
16,O=C(Cn1cc(COC[C@H]2O[C@H](OCc3cn(CC(=O)c4cc5ccccc5oc4=O)nn3)[C@H](OCc3ccccc3)[C@@H](OCc3ccccc3)[C@@H]2OCc2ccccc2)nn1)c1cc2ccccc2oc1=O,inactive

# Species: Homo sapiens
# Assay: Competitive inhibition of alpha-glucosidase (unknown origin) by kinetics based analysis
row,Compound,inhibition
1,CC(C)[C@@H]1CC[C@@H](C)C[C@H]1OC(=O)Cn1cc(COC[C@H]2O[C@H](OCc3cn(CC(=O)O[C@@H]4C[C@H](C)CC[C@H]4C(C)C)nn3)[C@H](OCc3ccccc3)[C@@H](OCc3ccccc3)[C@@H]2OCc2ccccc2)nn1,Active

# System: Saccharomyces cerevisiae
# Assay: Potency index, ratio of acarbose IC50 to test compound IC50 for Saccharomyces cerevisiae alpha-glucosidase
row,Compound,Ratio IC50
1,CC(C)[C@@H]1CC[C@@H](C)C[C@H]1OC(=O)Cn1cc(COC[C@H]2O[C@H](OCc3cn(CC(=O)O[C@@H]4C[C@H](C)CC[C@H]4C(C)C)nn3)[C@H](OCc3ccccc3)[C@@H](OCc3ccccc3)[C@@H]2OCc2ccccc2)nn1,39
